Literature values, collected in patent publication US20240066056A1, “Formulations of a Prophylactic Nasal Spray and Methods of Use and Manufacture Thereof” (priority 2020, published 2024).

What was measured:
[1] = cold and mild-warm water and alcohol
SARS-CoV-2 = conditions: within 30 seconds of contact
bacteria = conditions: after an application of povidone-iodine

Substance: Povidone-iodine [PVP-I]
- solubility [1]: soluble in cold and mild-warm water and alcohol
- virus killed (in vitro virucidal activity) (SARS-CoV-2): 99.99%
- duration of bactericidal action after application (bacteria): up to eight
